# Source: the supplement of paper PMC10307832
# Assays:
# Test in all cases: relative viability (nuclei count vs DMSO), 5 days (fraction); higher = more cells survive
# [1] = compound: CS(=O)(=O)c1ccc(C(=O)Nc2ccc(Cl)c(-c3ccccn3)c2)c(Cl)c1 [Vismodegib] + Cc1cc(Nc2cc(N3CCN(C)CC3)nc(Sc3ccc(NC(=O)C4CC4)cc3)n2)n[nH]1 [Tozasertib] (partner 0.1 µM)
# Method in brief: (§1)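 Relative viability was taken as the ratio of nuclei in treated wells to nuclei in vehicle wells. Lung cancer cell lines in 1536-well plates received compounds by pin tool one day after seeding, either one drug alone or a fixed anchor-drug dose plus five library-drug doses (not always all listed) in √10 steps. Nuclei were counted on 4× images after 5 days of treatment, and values are medians of duplicate plates.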
# [2] = compound: CS(=O)(=O)c1ccc(C(=O)Nc2ccc(Cl)c(-c3ccccn3)c2)c(Cl)c1 [Vismodegib] + Cc1nc(Nc2ncc(C(=O)Nc3c(C)cccc3Cl)s2)cc(N2CCN(CCO)CC2)n1 [Dasatinib] (partner 0.075 µM)
# Method in brief: as §1
# [3] = compound: N#CC[C@H](C1CCCC1)n1cc(-c2ncnc3[nH]ccc23)cn1 [Ruxolitinib] + CC(C)C[C@H](NC(=O)[C@H](Cc1ccccc1)NC(=O)c1cnccn1)B(O)O [Bortezomib] (partner 0.002 µM)
# Method in brief: as §1
# [4] = compound: N#CC[C@H](C1CCCC1)n1cc(-c2ncnc3[nH]ccc23)cn1 [Ruxolitinib] + Nc1ncn([C@H]2C[C@H](O)[C@@H](CO)O2)c(=O)n1 [Decitabine] (partner 2 µM)
# Method in brief: as §1
cell line,measurement,setting,value
UMC-11,relative viability,[1]; first compound 0.08 µM,0.184
same,relative viability,[1]; first compound 0.253 µM,0.196
same,relative viability,[1]; first compound 0.8 µM,0.168
same,relative viability,[1]; first compound 2.53 µM,0.194
same,relative viability,[1]; first compound 8 µM,0.225
same,relative viability,[2]; first compound 0.08 µM,0.434
same,relative viability,[2]; first compound 0.253 µM,0.471
same,relative viability,[2]; first compound 0.8 µM,0.423
same,relative viability,[2]; first compound 2.53 µM,0.444
same,relative viability,[2]; first compound 8 µM,0.418
same,relative viability,[3]; first compound 0.08 µM,0.696
same,relative viability,[3]; first compound 0.253 µM,0.983
same,relative viability,[3]; first compound 0.8 µM,0.929
same,relative viability,[3]; first compound 2.53 µM,0.715
same,relative viability,[3]; first compound 8 µM,0.706
same,relative viability,[4]; first compound 0.08 µM,0.745
same,relative viability,[4]; first compound 0.253 µM,0.62
same,relative viability,[4]; first compound 0.8 µM,0.797
same,relative viability,[4]; first compound 2.53 µM,0.433
same,relative viability,[4]; first compound 8 µM,0.627
